This passage reports IC50 results from paper PMC3901045 (Lab on a chip, 2013).

The assay has as its target T1, cyt P450 1A1 (Homo sapiens, UniProt P04798).
T1 sequence (P04798 1-512): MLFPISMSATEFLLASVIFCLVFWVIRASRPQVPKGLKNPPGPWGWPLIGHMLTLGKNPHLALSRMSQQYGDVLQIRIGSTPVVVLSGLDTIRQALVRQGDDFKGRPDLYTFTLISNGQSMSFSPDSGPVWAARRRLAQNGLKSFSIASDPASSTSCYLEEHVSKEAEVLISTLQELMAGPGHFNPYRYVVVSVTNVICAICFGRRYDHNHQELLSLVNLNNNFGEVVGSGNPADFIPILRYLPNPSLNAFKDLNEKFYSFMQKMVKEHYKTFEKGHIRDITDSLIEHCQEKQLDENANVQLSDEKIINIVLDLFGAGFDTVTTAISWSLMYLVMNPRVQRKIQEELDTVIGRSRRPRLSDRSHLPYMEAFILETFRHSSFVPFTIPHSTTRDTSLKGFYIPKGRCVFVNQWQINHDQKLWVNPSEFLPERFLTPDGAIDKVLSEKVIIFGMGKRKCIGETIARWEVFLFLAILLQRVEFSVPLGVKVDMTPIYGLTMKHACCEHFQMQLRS
Type of assay: biochemical.

`COc1ccc(/C=C/c2cc(O)cc(O)c2)cc1O` [rhapontigenin]: the concentration for half-maximal inhibition (IC50) (in general, the midpoint of a concentration-inhibition curve) was 32 ± 1 nM.
